{"source": "ChEMBL document CHEMBL5653615", "about": "(J Biol Chem, 2013)", "key": {"[1]": {"molecular_target": "T1, Serine/threonine-protein kinase 3 (Homo sapiens) (UniProt Q13188)", "T1 sequence (whole entry)": "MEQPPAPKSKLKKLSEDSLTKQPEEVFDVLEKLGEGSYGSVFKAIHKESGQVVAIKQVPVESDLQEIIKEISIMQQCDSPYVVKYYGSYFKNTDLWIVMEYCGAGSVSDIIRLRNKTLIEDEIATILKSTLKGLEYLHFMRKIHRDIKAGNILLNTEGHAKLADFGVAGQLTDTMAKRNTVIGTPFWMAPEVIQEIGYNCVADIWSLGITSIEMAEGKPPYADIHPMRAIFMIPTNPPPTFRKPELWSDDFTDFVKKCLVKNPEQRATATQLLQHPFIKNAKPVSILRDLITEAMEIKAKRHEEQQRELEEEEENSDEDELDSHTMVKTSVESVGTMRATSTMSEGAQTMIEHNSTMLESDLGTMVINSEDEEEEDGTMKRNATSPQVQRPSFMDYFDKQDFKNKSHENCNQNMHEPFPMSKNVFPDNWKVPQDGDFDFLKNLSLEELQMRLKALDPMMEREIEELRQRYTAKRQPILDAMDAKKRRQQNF", "test": "Inhibition of human STK3 at 18.6 nM by HotSpot assay relative to control"}, "[2]": {"molecular_target": "T2, Ephrin type-B receptor 1 (Homo sapiens) (UniProt P54762)", "T2 sequence (whole entry)": "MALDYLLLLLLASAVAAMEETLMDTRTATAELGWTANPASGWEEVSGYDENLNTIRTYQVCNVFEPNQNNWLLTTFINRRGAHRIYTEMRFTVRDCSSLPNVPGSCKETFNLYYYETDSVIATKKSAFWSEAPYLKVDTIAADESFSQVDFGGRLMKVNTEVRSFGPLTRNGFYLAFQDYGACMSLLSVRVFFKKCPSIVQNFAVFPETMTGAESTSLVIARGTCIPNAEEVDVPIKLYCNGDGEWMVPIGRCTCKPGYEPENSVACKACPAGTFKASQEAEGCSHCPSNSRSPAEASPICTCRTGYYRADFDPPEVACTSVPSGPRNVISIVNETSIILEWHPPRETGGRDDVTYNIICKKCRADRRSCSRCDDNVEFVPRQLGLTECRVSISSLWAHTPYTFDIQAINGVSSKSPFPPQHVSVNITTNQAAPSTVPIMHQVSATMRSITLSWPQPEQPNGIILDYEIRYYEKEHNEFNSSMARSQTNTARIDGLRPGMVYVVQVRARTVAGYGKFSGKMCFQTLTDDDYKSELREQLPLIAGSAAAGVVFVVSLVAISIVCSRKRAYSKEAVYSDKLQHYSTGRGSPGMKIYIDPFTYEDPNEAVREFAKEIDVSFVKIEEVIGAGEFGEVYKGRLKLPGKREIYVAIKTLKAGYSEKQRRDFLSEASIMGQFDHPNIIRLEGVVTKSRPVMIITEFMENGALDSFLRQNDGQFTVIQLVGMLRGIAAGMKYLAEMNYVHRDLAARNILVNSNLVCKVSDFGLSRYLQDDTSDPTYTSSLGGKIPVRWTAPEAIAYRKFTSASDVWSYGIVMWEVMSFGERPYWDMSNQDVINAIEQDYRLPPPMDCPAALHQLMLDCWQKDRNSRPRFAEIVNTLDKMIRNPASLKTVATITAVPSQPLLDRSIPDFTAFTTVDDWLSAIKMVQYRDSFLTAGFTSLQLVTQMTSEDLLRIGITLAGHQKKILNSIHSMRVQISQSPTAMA", "test": "Inhibition of human EPHB1 at 18.6 nM by HotSpot assay relative to control"}, "[3]": {"molecular_target": "T3, Serine/threonine-protein kinase D2 (Homo sapiens) (UniProt Q9BZL6)", "T3 sequence (whole entry)": "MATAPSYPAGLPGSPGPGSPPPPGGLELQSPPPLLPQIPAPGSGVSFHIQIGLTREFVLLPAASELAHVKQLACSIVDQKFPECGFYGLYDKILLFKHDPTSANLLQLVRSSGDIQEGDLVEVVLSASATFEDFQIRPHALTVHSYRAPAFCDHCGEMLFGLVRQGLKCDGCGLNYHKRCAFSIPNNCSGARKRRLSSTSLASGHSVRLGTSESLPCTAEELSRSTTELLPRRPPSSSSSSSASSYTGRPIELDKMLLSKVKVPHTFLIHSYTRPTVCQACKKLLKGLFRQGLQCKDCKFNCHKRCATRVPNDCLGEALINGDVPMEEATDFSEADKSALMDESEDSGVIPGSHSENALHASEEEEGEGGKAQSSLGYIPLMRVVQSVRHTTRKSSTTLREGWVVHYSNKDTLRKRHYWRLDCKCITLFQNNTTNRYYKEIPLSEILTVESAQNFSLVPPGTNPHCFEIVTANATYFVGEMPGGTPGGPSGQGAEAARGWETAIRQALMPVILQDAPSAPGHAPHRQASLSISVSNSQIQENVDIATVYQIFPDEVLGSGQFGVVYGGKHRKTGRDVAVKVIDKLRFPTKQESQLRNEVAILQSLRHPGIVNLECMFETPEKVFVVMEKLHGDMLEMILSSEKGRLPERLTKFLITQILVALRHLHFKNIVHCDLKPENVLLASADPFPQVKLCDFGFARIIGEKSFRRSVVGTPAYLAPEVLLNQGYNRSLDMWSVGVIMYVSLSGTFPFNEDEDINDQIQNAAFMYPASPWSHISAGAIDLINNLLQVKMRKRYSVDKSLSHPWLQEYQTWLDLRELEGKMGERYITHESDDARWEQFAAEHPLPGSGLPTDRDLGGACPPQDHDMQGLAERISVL", "test": "Inhibition of human PRKD2 at 18.6 nM by HotSpot assay relative to control"}}, "data": [{"compound": "C[C@]1(O)C[C@@H](c2nc(-c3ccc4ccc(-c5ccccc5)nc4c3)c3c(N)nccn32)C1", "values": [{"measurement": "inhibition", "setting": "[1]", "result": -2.45, "unit": "%"}, {"measurement": "inhibition", "setting": "[2]", "result": -4.68, "unit": "%"}, {"measurement": "inhibition", "setting": "[3]", "result": 7.59, "unit": "%"}]}]}
